Results published in the NIST ThermoML archive (doi:10.1021/acs.jced.7b00176).

Experiments:
[1] = xn = mol fraction of the nth substance listed; conditions: Liquid, Vibrating tube method, x1 = 1
[2] = Liquid, Vibrating tube method

CCCCO [butan-1-ol] + COCCOCCOC
[1]
Conditions | mass density [kg/m3]
283.63 K, 80 kPa | 817.19
283.63 K, 5000 kPa | 820.7
283.64 K, 1000 kPa | 817.88
283.64 K, 40000 kPa | 842.03
283.64 K, 60000 kPa | 852.39
283.64 K, 100000 kPa | 870.33
283.65 K, 30000 kPa | 836.43
283.65 K, 80000 kPa | 861.72
283.66 K, 10000 kPa | 824.01
283.66 K, 20000 kPa | 830.39
303.45 K, 100 kPa | 801.81
303.45 K, 1000 kPa | 802.54
303.46 K, 5000 kPa | 805.65
303.46 K, 10000 kPa | 809.35
303.47 K, 20000 kPa | 816.29
303.47 K, 30000 kPa | 822.84
303.47 K, 40000 kPa | 828.87
303.47 K, 60000 kPa | 839.95
303.48 K, 80010 kPa | 849.82
303.48 K, 100000 kPa | 858.94
323.25 K, 1000 kPa | 787.19
323.26 K, 100 kPa | 786.36
323.26 K, 5000 kPa | 790.63
323.27 K, 10000 kPa | 794.68
323.27 K, 20000 kPa | 802.33
323.27 K, 30000 kPa | 809.41
323.28 K, 40000 kPa | 816
323.28 K, 60000 kPa | 827.77
323.28 K, 80000 kPa | 838.31
323.28 K, 100000 kPa | 847.65
343.03 K, 100 kPa | 769.54
343.03 K, 1000 kPa | 770.45
343.04 K, 5000 kPa | 774.32
343.04 K, 10000 kPa | 778.88
343.05 K, 20000 kPa | 787.37
343.05 K, 30000 kPa | 795.06
343.05 K, 40000 kPa | 802.13
343.05 K, 60000 kPa | 814.83
343.05 K, 80000 kPa | 826.08
343.05 K, 100000 kPa | 836.2
362.68 K, 100 kPa | 752.67
362.68 K, 1000 kPa | 753.64
362.68 K, 30000 kPa | 781.04
362.69 K, 5000 kPa | 758.03
362.69 K, 10000 kPa | 763.16
362.69 K, 20000 kPa | 772.56
362.7 K, 40000 kPa | 788.67
362.7 K, 60000 kPa | 802.36
362.71 K, 80000 kPa | 814.44
362.71 K, 100000 kPa | 825.18

COCCOCCOC [2,5,8-trioxanonane]
[2]
Conditions | mass density [kg/m3]
283.67 K, 40000 kPa | 978.49
283.67 K, 60000 kPa | 989.12
283.67 K, 80000 kPa | 998.75
283.67 K, 100000 kPa | 1007.71
283.68 K, 10000 kPa | 960.29
283.68 K, 20000 kPa | 966.68
283.68 K, 30000 kPa | 972.8
283.69 K, 100 kPa | 953.48
283.69 K, 1000 kPa | 954.15
283.69 K, 5000 kPa | 956.94
303.47 K, 100 kPa | 933.69
303.47 K, 1000 kPa | 934.43
303.48 K, 5000 kPa | 937.55
303.48 K, 10000 kPa | 941.31
303.49 K, 20000 kPa | 948.42
303.49 K, 30000 kPa | 955.17
303.49 K, 40000 kPa | 961.41
303.49 K, 60000 kPa | 973.02
303.5 K, 80000 kPa | 983.33
303.5 K, 100000 kPa | 992.97
322.62 K, 100 kPa | 914.41
322.62 K, 1000 kPa | 915.3
322.62 K, 5000 kPa | 918.77
322.62 K, 10000 kPa | 923.02
322.62 K, 20000 kPa | 930.99
322.62 K, 30000 kPa | 938.31
322.62 K, 40000 kPa | 945.16
322.62 K, 60000 kPa | 957.74
322.62 K, 80000 kPa | 968.98
322.62 K, 100000 kPa | 979.2
342.49 K, 100 kPa | 894.03
342.49 K, 1000 kPa | 894.98
342.49 K, 5000 kPa | 898.96
342.5 K, 10000 kPa | 903.66
342.5 K, 20000 kPa | 912.57
342.51 K, 30000 kPa | 920.68
342.51 K, 40000 kPa | 928.18
342.51 K, 60000 kPa | 941.77
342.51 K, 80000 kPa | 953.82
342.52 K, 100000 kPa | 964.68
362.51 K, 100 kPa | 873.45
362.51 K, 1000 kPa | 874.46
362.51 K, 5000 kPa | 879.02
362.52 K, 10000 kPa | 884.41
362.52 K, 20000 kPa | 894.33
362.52 K, 30000 kPa | 903.29
362.52 K, 40000 kPa | 911.53
362.53 K, 60000 kPa | 926.3
362.53 K, 80000 kPa | 939.26
362.53 K, 100000 kPa | 950.89

CCCCO [butan-1-ol]
[2]
Conditions | mass density [kg/m3]
283.63 K, 80 kPa | 817.19
283.63 K, 5000 kPa | 820.7
283.64 K, 1000 kPa | 817.88
283.64 K, 40000 kPa | 842.03
283.64 K, 60000 kPa | 852.39
283.64 K, 100000 kPa | 870.33
283.65 K, 30000 kPa | 836.43
283.65 K, 80000 kPa | 861.72
283.66 K, 10000 kPa | 824.01
283.66 K, 20000 kPa | 830.39
303.45 K, 100 kPa | 801.81
303.45 K, 1000 kPa | 802.54
303.46 K, 5000 kPa | 805.65
303.46 K, 10000 kPa | 809.35
303.47 K, 20000 kPa | 816.29
303.47 K, 30000 kPa | 822.84
303.47 K, 40000 kPa | 828.87
303.47 K, 60000 kPa | 839.95
303.48 K, 80010 kPa | 849.82
303.48 K, 100000 kPa | 858.94
323.25 K, 1000 kPa | 787.19
323.26 K, 100 kPa | 786.36
323.26 K, 5000 kPa | 790.63
323.27 K, 10000 kPa | 794.68
323.27 K, 20000 kPa | 802.33
323.27 K, 30000 kPa | 809.41
323.28 K, 40000 kPa | 816
323.28 K, 60000 kPa | 827.77
323.28 K, 80000 kPa | 838.31
323.28 K, 100000 kPa | 847.65
343.03 K, 100 kPa | 769.54
343.03 K, 1000 kPa | 770.45
343.04 K, 5000 kPa | 774.32
343.04 K, 10000 kPa | 778.88
343.05 K, 20000 kPa | 787.37
343.05 K, 30000 kPa | 795.06
343.05 K, 40000 kPa | 802.13
343.05 K, 60000 kPa | 814.83
343.05 K, 80000 kPa | 826.08
343.05 K, 100000 kPa | 836.2
362.68 K, 100 kPa | 752.67
362.68 K, 1000 kPa | 753.64
362.68 K, 30000 kPa | 781.04
362.69 K, 5000 kPa | 758.03
362.69 K, 10000 kPa | 763.16
362.69 K, 20000 kPa | 772.56
362.7 K, 40000 kPa | 788.67
362.7 K, 60000 kPa | 802.36
362.71 K, 80000 kPa | 814.44
362.71 K, 100000 kPa | 825.18
